Test results published in patent US12540128B2, “Substituted pyridazinones as herbicides” (SYNGENTA CROP PROTECTION AG, priority 2019, dated 2026).

Tests used:
Type in all cases: in vivo
Conditions in all cases: 250 g/ha, after 13 days
Lolium perenne (LOLPE) [1] = experiment: B1 Post-Emergence Efficacy Test 1
Experimental: (§1) Seeds of a variety of test species are sown in standard soil in pots:— Solanum nigrum (SOLNI), Amaranthus retoflexus (AMARE), Setaria faberi (SETFA), Echinochloa crus-galli (ECHCG), Ipomoea hederacea (IPOHE), Lolium perenne (LOLPE). After 8 days cultivation (post-emergence) under controlled conditions in a glasshouse (at 24/16° C., day/night; 14 hours light; 65% humidity), the plants are sprayed with an aqueous spray solution derived from the formulation of the technical active ingredient in acetone/water (50:50) solution containing 0.5% Tween 20 (polyoxyethylene sorbitan monolaurate, CAS RN 9005-64-5). Compounds are applied at 250 g/ha. The test plants are then grown in a glasshouse under controlled conditions in a glasshouse (at 24/16° C., day/night; 14 hours light; 65% humidity) and watered twice daily. After 13 days, the test is evaluated for the percentage damage caused to the plant. The biological activities are assessed on a five point scale (5=80-100%; 4=60-79%; 3=40-59%; 2=20-39%; 1=0-19%). A blank value in the table is indicative that the compound was not tested on that species.

[2] = tested on: Ipomoea hederacea (IPOHE); experiment: B1 Post-Emergence Efficacy Test 1
Experimental: as §1

Setaria faberi (SETFA) [3] = experiment: B1 Post-Emergence Efficacy Test 1
Experimental: as §1

[4] = tested on: Echinochloa crus-galli (ECHCG); experiment: B1 Post-Emergence Efficacy Test 1
Experimental: as §1

[5] = tested on: Amaranthus retoflexus (AMARE); experiment: B1 Post-Emergence Efficacy Test 1
Experimental: as §1

Lolium perenne (LOLPE) [6] = experiment: B3 Pre-Emergence Efficacy Test 1
Experimental: (§2) Seeds of a variety of test species were sown in standard soil in pots: Solanum nigrum (SOLNI), Amaranthus retoflexus (AMARE), Setaria faberi (SETFA), Echinochloa crus-galli (ECHCG), Ipomoea hederacea (IPOHE), Lolium perenne (LOLPE). After cultivation for one day (pre-emergence) under controlled conditions in a glasshouse (at 24/16° C., day/night; 14 hours light; 65% humidity), the plants were sprayed with an aqueous spray solution derived from the formulation of the technical active ingredient in acetone/water (50:50) solution containing 0.5% Tween 20 (polyoxyethelyene sorbitan monolaurate, CAS RN 9005-64-5). Compounds are applied at 250 g/ha. The test plants were then grown in a glasshouse under controlled conditions (at 24/16° C., day/night; 14 hours light; 65% humidity) and watered twice daily. After 13 days, the test is evaluated for the percentage damage caused to the plant. The biological activities are assessed on a five point scale (5=80-100%; 4=60-79%; 3=40-59%; 2=20-39%; 1=0-19%). A blank value in the table is indicative that the compound was not tested on that species.

[7] = tested on: Ipomoea hederacea (IPOHE); experiment: B3 Pre-Emergence Efficacy Test 1
Experimental: as §2

Setaria faberi (SETFA) [8] = experiment: B3 Pre-Emergence Efficacy Test 1
Experimental: as §2

[9] = tested on: Echinochloa crus-galli (ECHCG); experiment: B3 Pre-Emergence Efficacy Test 1
Experimental: as §2

Solanum nigrum (SOLNI) [10] = experiment: B3 Pre-Emergence Efficacy Test 1
Experimental: as §2

[11] = tested on: Amaranthus retoflexus (AMARE); experiment: B3 Pre-Emergence Efficacy Test 1
Experimental: as §2

Solanum nigrum (SOLNI) [12] = experiment: B1 Post-Emergence Efficacy Test 1
Experimental: as §1

[13] = tested on: Ipomoea hederacea (IPOHE); experiment: B2 Post-Emergence Efficacy Test 2
Experimental: as §1, with “pots:—” for “pots:— Solanum nigrum (SOLNI),”, “Zea Mays (ZEAMX), Abutilon theophrasti (ABUTH).” for “Lolium perenne (LOLPE).”

[14] = tested on: Abutilon theophrasti (ABUTH); experiment: B2 Post-Emergence Efficacy Test 2
Experimental: as §1, with “pots:—” for “pots:— Solanum nigrum (SOLNI),”, “Zea Mays (ZEAMX), Abutilon theophrasti (ABUTH).” for “Lolium perenne (LOLPE).”

Zea Mays (ZEAMX) [15] = experiment: B2 Post-Emergence Efficacy Test 2
Experimental: as §1, with “pots:—” for “pots:— Solanum nigrum (SOLNI),”, “Zea Mays (ZEAMX), Abutilon theophrasti (ABUTH).” for “Lolium perenne (LOLPE).”

Setaria faberi (SETFA) [16] = experiment: B2 Post-Emergence Efficacy Test 2
Experimental: as §1, with “pots:—” for “pots:— Solanum nigrum (SOLNI),”, “Zea Mays (ZEAMX), Abutilon theophrasti (ABUTH).” for “Lolium perenne (LOLPE).”

[17] = tested on: Amaranthus retoflexus (AMARE); experiment: B2 Post-Emergence Efficacy Test 2
Experimental: as §1, with “pots:—” for “pots:— Solanum nigrum (SOLNI),”, “Zea Mays (ZEAMX), Abutilon theophrasti (ABUTH).” for “Lolium perenne (LOLPE).”

[18] = tested on: Ipomoea hederacea (IPOHE); experiment: B4 Pre-Emergence Efficacy Test 2
Experimental: as §2, with “pots:” for “pots: Solanum nigrum (SOLNI),”, “Zea Mays (ZEAMX), Abutilon theophrasti (ABUTH).” for “Lolium perenne (LOLPE).”

[19] = tested on: Abutilon theophrasti (ABUTH); experiment: B4 Pre-Emergence Efficacy Test 2
Experimental: as §2, with “pots:” for “pots: Solanum nigrum (SOLNI),”, “Zea Mays (ZEAMX), Abutilon theophrasti (ABUTH).” for “Lolium perenne (LOLPE).”

Zea Mays (ZEAMX) [20] = experiment: B4 Pre-Emergence Efficacy Test 2
Experimental: as §2, with “pots:” for “pots: Solanum nigrum (SOLNI),”, “Zea Mays (ZEAMX), Abutilon theophrasti (ABUTH).” for “Lolium perenne (LOLPE).”

Setaria faberi (SETFA) [21] = experiment: B4 Pre-Emergence Efficacy Test 2
Experimental: as §2, with “pots:” for “pots: Solanum nigrum (SOLNI),”, “Zea Mays (ZEAMX), Abutilon theophrasti (ABUTH).” for “Lolium perenne (LOLPE).”

[22] = tested on: Echinochloa crus-galli (ECHCG); experiment: B4 Pre-Emergence Efficacy Test 2
Experimental: as §2, with “pots:” for “pots: Solanum nigrum (SOLNI),”, “Zea Mays (ZEAMX), Abutilon theophrasti (ABUTH).” for “Lolium perenne (LOLPE).”

[23] = tested on: Amaranthus retoflexus (AMARE); experiment: B4 Pre-Emergence Efficacy Test 2
Experimental: as §2, with “pots:” for “pots: Solanum nigrum (SOLNI),”, “Zea Mays (ZEAMX), Abutilon theophrasti (ABUTH).” for “Lolium perenne (LOLPE).”

[24] = tested on: Echinochloa crus-galli (ECHCG); experiment: B2 Post-Emergence Efficacy Test 2
Experimental: as §1, with “pots:—” for “pots:— Solanum nigrum (SOLNI),”, “Zea Mays (ZEAMX), Abutilon theophrasti (ABUTH).” for “Lolium perenne (LOLPE).”

| Compound | percentage damage caused to the plant, five point scale, LOLPE (Lolium perenne (LOLPE) [1]) | percentage damage caused to the plant, five point scale, IPOHE [2] | percentage damage caused to the plant, five point scale, SETFA (Setaria faberi (SETFA) [3]) | percentage damage caused to the plant, five point scale, AMARE [5] | percentage damage caused to the plant, five point scale, LOLPE (Lolium perenne (LOLPE) [6]) | percentage damage caused to the plant, five point scale, IPOHE [7] | percentage damage caused to the plant, five point scale, SETFA (Setaria faberi (SETFA) [8]) | percentage damage caused to the plant, five point scale, ECHCG [9] | percentage damage caused to the plant, five point scale, SOLNI (Solanum nigrum (SOLNI) [10]) | percentage damage caused to the plant, five point scale, AMARE [11] | percentage damage caused to the plant, five point scale, SOLNI (Solanum nigrum (SOLNI) [12]) | percentage damage caused to the plant, five point scale, IPOHE [13] | percentage damage caused to the plant, five point scale, ABUTH [14] | percentage damage caused to the plant, five point scale, ZEAMX (Zea Mays (ZEAMX) [15]) | percentage damage caused to the plant, five point scale, SETFA (Setaria faberi (SETFA) [16]) | percentage damage caused to the plant, five point scale, AMARE [17] | percentage damage caused to the plant, five point scale, IPOHE [18] | percentage damage caused to the plant, five point scale, ABUTH [19] | percentage damage caused to the plant, five point scale, ZEAMX (Zea Mays (ZEAMX) [20]) | percentage damage caused to the plant, five point scale, SETFA (Setaria faberi (SETFA) [21]) | also measured |
| --- | --- | --- | --- | --- | --- | --- | --- | --- | --- | --- | --- | --- | --- | --- | --- | --- | --- | --- | --- | --- | --- |
| Cc1nn(C)c(=O)c(-c2c(F)ccc(Cl)c2CCc2cc(C(F)(F)F)nc3ccccc23)c1O [Compound 1.027] | 4 (4=60-79%) | 5 (5=80-100%) | 4 (4=60-79%) | 2 (2=20-39%) | 3 (3=40-59%) | 3 (3=40-59%) | 1 (1=0-19%) | 3 (3=40-59%) | 4 (4=60-79%) | 1 (1=0-19%) | – | – | – | – | – | – | – | – | – | – | percentage damage caused to the plant, five point scale, ECHCG [4]: 4 (4=60-79%) |
| Cc1nn(C)c(=O)c(-c2c(F)ccc(Cl)c2CCc2ccc3c(c2)CC(=O)N3)c1O [Compound 1.357] | 5 (5=80-100%) | 5 (5=80-100%) | 5 (5=80-100%) | 5 (5=80-100%) | – | – | – | – | – | – | 5 (5=80-100%) | 4 (4=60-79%) | 4 (4=60-79%) | 5 (5=80-100%) | 4 (4=60-79%) | 2 (2=20-39%) | 3 (3=40-59%) | 4 (4=60-79%) | 1 (1=0-19%) | 4 (4=60-79%) | percentage damage caused to the plant, five point scale, ECHCG [4]: 4 (4=60-79%); percentage damage caused to the plant, five point scale, ECHCG [22]: 4 (4=60-79%); percentage damage caused to the plant, five point scale, AMARE [23]: 4 (4=60-79%) |
| Cc1nn(C)c(=O)c(-c2c(F)ccc(Cl)c2CCc2ccc3c(c2)OC(C)(C)O3)c1O [Compound 1.361, [3-chloro-2-[2-(2,2-dimethyl-1,3-benzodioxol-5-yl)ethyl]-6-fluoro-phenyl]-5-hydroxy-2,6-dimethyl-pyridazin-3-one] | – | – | – | – | – | – | – | – | – | – | – | 5 (5=80-100%) | 5 (5=80-100%) | 4 (4=60-79%) | 5 (5=80-100%) | 3 (3=40-59%) | 4 (4=60-79%) | 5 (5=80-100%) | 1 (1=0-19%) | 5 (5=80-100%) | percentage damage caused to the plant, five point scale, ECHCG [24]: 4 (4=60-79%); percentage damage caused to the plant, five point scale, ECHCG [22]: 3 (3=40-59%); percentage damage caused to the plant, five point scale, AMARE [23]: 4 (4=60-79%) |
| Cc1ccc2cc(/C=C/c3c(Cl)ccc(F)c3-c3c(O)c(C)nn(C)c3=O)ccc2n1 [Compound 2.034, 4-[3-chloro-6-fluoro-2-[(E)-2-(2-methyl-6-quinolyl)vinyl]phenyl]-5-hydroxy-2,6-dimethyl-pyridazin-3-one] | 2 (2=20-39%) | 3 (3=40-59%) | 2 (2=20-39%) | 1 (1=0-19%) | 1 (1=0-19%) | 0 | 1 (1=0-19%) | 1 (1=0-19%) | 2 (2=20-39%) | 1 (1=0-19%) | 5 (5=80-100%) | – | – | – | – | – | – | – | – | – | – |
| Cc1nn(C)c(=O)c(-c2c(F)ccc(Cl)c2/C=C/c2cn3ccnc3cn2)c1O [Compound 2.363] | – | – | – | – | – | – | – | – | – | – | – | 2 (2=20-39%) | 0 | 0 | 0 | 1 (1=0-19%) | 5 (5=80-100%) | 5 (5=80-100%) | 2 (2=20-39%) | 4 (4=60-79%) | percentage damage caused to the plant, five point scale, ECHCG [24]: 0; percentage damage caused to the plant, five point scale, ECHCG [22]: 5 (5=80-100%); percentage damage caused to the plant, five point scale, AMARE [23]: 5 (5=80-100%) |
| Cc1ccc2cc(/C=C/c3c(Cl)ccc(F)c3-c3c(OC(=O)C(C)C)c(C)nn(C)c3=O)ccc2n1 [Compound 4.034, [5-[3-chloro-6-fluoro-2-[(E)-2-(2-methyl-6-quinolyl)vinyl]phenyl]-1,3-dimethyl-6-oxo-pyridazin-4-yl] 2-methylpropanoate] | 1 (1=0-19%) | 3 (3=40-59%) | 2 (2=20-39%) | 1 (1=0-19%) | 0 | 0 | 0 | 0 | 1 (1=0-19%) | 0 | 5 (5=80-100%) | – | – | – | – | – | – | – | – | – | – |
